Data reported in patent US20240109903A1, “SUBSTITUTED HETEROCYCLES FOR TREATING CANCER” (Northwestern University, priority 2022, published 2024).

Key:
Type in all cases: cell-based
HL-60(TB) = experiment: NCI 60 five-dose screen HL-60(TB); conditions: Homo sapiens, five-dose
MOLT-4 = experiment: NCI 60 five-dose screen MOLT-4; conditions: Homo sapiens, five-dose
RPMI-8226 = experiment: NCI 60 five-dose screen RPMI-8226; conditions: Homo sapiens, five-dose
A549/ATCC = experiment: NCI 60 five-dose screen A549/ATCC; conditions: Homo sapiens, five-dose
NCI-H460 = experiment: NCI 60 five-dose screen NCI-H460; conditions: Homo sapiens, five-dose
NCI-H522 = experiment: NCI 60 five-dose screen NCI-H522; conditions: Homo sapiens, five-dose
SW-620 = experiment: NCI 60 five-dose screen SW-620; conditions: Homo sapiens, five-dose
SF-539 = experiment: NCI 60 five-dose screen SF-539; conditions: Homo sapiens, five-dose
SNB-19 = experiment: NCI 60 five-dose screen SNB-19; conditions: Homo sapiens, five-dose
U251 = experiment: NCI 60 five-dose screen U251; conditions: Homo sapiens, U-251, five-dose
MALME-3M = experiment: NCI 60 five-dose screen MALME-3M; conditions: Homo sapiens, MALME-3M, five-dose
M14 = experiment: NCI 60 five-dose screen M14; conditions: Homo sapiens, five-dose
MDA-MB-435 = experiment: NCI 60 five-dose screen MDA-MB-435; conditions: Homo sapiens, five-dose
SK-MEL-28 = experiment: NCI 60 five-dose screen SK-MEL-28; conditions: Homo sapiens, five-dose
IGROV1 = experiment: NCI 60 five-dose screen IGROV1; conditions: Homo sapiens, IGROV-1, five-dose
OVCAR-3 = experiment: NCI 60 five-dose screen OVCAR-3; conditions: Homo sapiens, five-dose
786-0 = experiment: NCI 60 five-dose screen 786-0; conditions: Homo sapiens, five-dose
ACHN = experiment: NCI 60 five-dose screen ACHN; conditions: Homo sapiens, five-dose
RXF 393 = experiment: NCI 60 five-dose screen RXF 393; conditions: Homo sapiens, five-dose
TK-10 = experiment: NCI 60 five-dose screen TK-10; conditions: Homo sapiens, five-dose
PC-3 = experiment: NCI 60 five-dose screen PC-3; conditions: Homo sapiens, five-dose
MCF7 = experiment: NCI 60 five-dose screen MCF7; conditions: Homo sapiens, five-dose
HS 578T = experiment: NCI 60 five-dose screen HS 578T; conditions: Homo sapiens, five-dose
T-47D = experiment: NCI 60 five-dose screen T-47D; conditions: Homo sapiens, T47D, five-dose
[1] = read-out: LC50 (the source's name) (converted)
[2] = read-out: LC50 (the source's name)

FC(F)(F)CN1CCN(CCn2c(C(F)(F)F)cc3c(Cl)ncnc32)CC1 [NUCC-0226683]
GI50 (HL-60(TB)): 2.75 µM
IC50 (HL-60(TB)): 5.75 µM
IC (TGI) (HL-60(TB)): 8.13 µM
CC50 (HL-60(TB); [1]): ≥ 100 µM
GI50 (MOLT-4): 2.4 µM
IC50 (MOLT-4): 4.17 µM
IC (TGI) (MOLT-4): 9.12 µM
CC50 (MOLT-4; [2]): ≥ 100 µM
GI50 (RPMI-8226): 23.4 µM
IC50 (RPMI-8226): 39.8 µM
IC (TGI) (RPMI-8226): 77.6 µM
CC50 (RPMI-8226; [2]): ≥ 100 µM
GI50 (A549/ATCC): 52.5 µM
IC50 (A549/ATCC): 89.1 µM
IC (TGI) (A549/ATCC): 100 µM
CC50 (A549/ATCC; [1]): ≥ 100 µM
GI50 (NCI-H460): 2.69 µM
IC50 (NCI-H460): 3.63 µM
IC (TGI) (NCI-H460): 6.76 µM
CC50 (NCI-H460; [1]): 30.9 µM
GI50 (NCI-H522): 1.7 µM
IC50 (NCI-H522): 3.24 µM
IC (TGI) (NCI-H522): 3.55 µM
CC50 (NCI-H522; [1]): 7.24 µM
GI50 (SW-620): 4.9 µM
IC50 (SW-620): 6.17 µM
IC (TGI) (SW-620): 19.5 µM
CC50 (SW-620; [1]): 63.1 µM
GI50 (SF-539): 12.6 µM
IC50 (SF-539): 22.9 µM
IC (TGI) (SF-539): 28.8 µM
CC50 (SF-539; [1]): 66.1 µM
GI50 (SNB-19): 13.2 µM
IC50 (SNB-19): 24 µM
IC (TGI) (SNB-19): 26.9 µM
CC50 (SNB-19; [1]): 53.7 µM
GI50 (U251): 2.4 µM
IC50 (U251): 3.63 µM
IC (TGI) (U251): 6.46 µM
CC50 (U251; [1]): 24 µM
GI50 (MALME-3M): 14.5 µM
IC50 (MALME-3M): 33.9 µM
IC (TGI) (MALME-3M): 32.4 µM
CC50 (MALME-3M; [1]): 70.8 µM
GI50 (M14): 6.17 µM
IC50 (M14): 12.3 µM
IC (TGI) (M14): 22.9 µM
CC50 (M14; [1]): 67.6 µM
GI50 (MDA-MB-435): 5.5 µM
IC50 (MDA-MB-435): 9.12 µM
IC (TGI) (MDA-MB-435): 19.5 µM
CC50 (MDA-MB-435; [1]): 51.3 µM
GI50 (SK-MEL-28): 8.13 µM
IC50 (SK-MEL-28): 16.6 µM
IC (TGI) (SK-MEL-28): 37.2 µM
CC50 (SK-MEL-28; [1]): ≥ 100 µM
GI50 (IGROV1): 1.78 µM
IC50 (IGROV1): 3.16 µM
IC (TGI) (IGROV1): 3.55 µM
CC50 (IGROV1; [1]): 7.08 µM
GI50 (OVCAR-3): 14.5 µM
IC50 (OVCAR-3): 28.8 µM
IC (TGI) (OVCAR-3): 34.7 µM
CC50 (OVCAR-3; [1]): 83.2 µM
GI50 (786-0): 22.4 µM
IC50 (786-0): 37.2 µM
IC (TGI) (786-0): 60.3 µM
CC50 (786-0; [1]): ≥ 100 µM
GI50 (ACHN): 12.3 µM
IC50 (ACHN): 22.4 µM
IC (TGI) (ACHN): 100 µM
CC50 (ACHN; [1]): ≥ 100 µM
GI50 (RXF 393): 11 µM
IC50 (RXF 393): 30.9 µM
IC (TGI) (RXF 393): 28.2 µM
CC50 (RXF 393; [1]): 72.4 µM
GI50 (TK-10): 35.5 µM
IC50 (TK-10): 100 µM
IC (TGI) (TK-10): 100 µM
CC50 (TK-10; [1]): ≥ 100 µM
GI50 (PC-3): 3.55 µM
IC50 (PC-3): 5.01 µM
IC (TGI) (PC-3): 12 µM
CC50 (PC-3; [1]): 57.5 µM
GI50 (MCF7): 10 µM
IC50 (MCF7): 15.8 µM
IC (TGI) (MCF7): 42.7 µM
CC50 (MCF7; [1]): ≥ 100 µM
GI50 (HS 578T): 14.1 µM
IC50 (HS 578T): 100 µM
IC (TGI) (HS 578T): 60.3 µM
CC50 (HS 578T; [2]): ≥ 100 µM
GI50 (T-47D): 17.4 µM
IC50 (T-47D): 49 µM
IC (TGI) (T-47D): 63.1 µM
CC50 (T-47D; [2]): ≥ 100 µM
